In experiment [1] the target is T1, Thromboxane A2 (TxA2) Synthetase (Homo sapiens, UniProt P24557).
T1 construct: Indomethacin pretreated human platelet microsomes; from tissue; host or cells: human platelets (microsomes)
T1 sequence (P24557 1-533): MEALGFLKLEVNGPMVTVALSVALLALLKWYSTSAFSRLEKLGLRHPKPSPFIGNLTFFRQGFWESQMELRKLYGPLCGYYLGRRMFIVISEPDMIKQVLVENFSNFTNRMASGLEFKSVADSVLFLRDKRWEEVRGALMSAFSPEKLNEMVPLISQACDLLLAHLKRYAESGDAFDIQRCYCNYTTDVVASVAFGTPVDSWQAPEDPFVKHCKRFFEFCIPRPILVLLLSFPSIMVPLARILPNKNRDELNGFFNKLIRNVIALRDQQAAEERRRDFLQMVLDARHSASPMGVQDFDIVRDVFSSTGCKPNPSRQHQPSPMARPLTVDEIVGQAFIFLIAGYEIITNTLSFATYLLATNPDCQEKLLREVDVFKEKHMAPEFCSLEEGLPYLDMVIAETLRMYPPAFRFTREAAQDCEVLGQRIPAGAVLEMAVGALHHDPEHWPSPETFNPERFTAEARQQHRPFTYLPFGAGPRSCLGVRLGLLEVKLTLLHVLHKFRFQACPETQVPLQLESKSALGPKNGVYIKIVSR
As to the kind of experiment: Thromboxane A2 (TxA2) synthetase inhibition in vitro (isometric tension of rabbit aorta spirals). The format is biochemical. Conditions: Indomethacin pretreated human platelet microsomes; PGH2 substrate, 2 min, 0° C; 5 min pre-incubation; read-out: Molar concentration causing 50% inhibition of TxA2 Synthetase. Here is the method: (§1) The effect of the compounds of the formula (I) on the thromboxane synthetase enzyme, and the prostacyclin synthetase and cyclo-oxygenase enzyme has been measured by the following in vitro enzyme assays:
3. Thromboxane A2 (TxA2) Synthetase
Indomethacin pretreated human platelet microsomes (Science 1976, 193, 163) are incubated (2 min.: 0° C.) with PGH2 (produced as in 1) and aliquots of the reaction mixture superfused over two rabbit aorta spirals which are separated by a delay coil (2 min.). The latter is required to allow the selective decay of the more unstable thromboxane A2 (Proc. Nat. Acad. Sci., 1975, 72, 2994) thereby enabling the separate measurement of increased isometric tension due to the TxA2 formed and the PGH2 remaining. The test compound is pre-incubated with the enzyme for 5 minutes, and its ability to inhibit the thromboxane synthetase enzyme is measured as its reduction of the TxA2 component of the isometric tension.
(§2) The results of these tests are shown in the following Table, which gives the molar concentration of each compound which caused a 50% change in the effect of the relevant enzyme on isometric tension, i.e. caused a 50% inhibition of the action of that enzyme.

Experiment [2] deals with T2, Prostacyclin (PGI2) Synthetase (Sus scrofa, UniProt A0A5G2QT35).
T2 construct: Pig aorta microsomes; from tissue; host or cells: pig aorta (microsomes)
T2 sequence (A0A5G2QT35 1-497): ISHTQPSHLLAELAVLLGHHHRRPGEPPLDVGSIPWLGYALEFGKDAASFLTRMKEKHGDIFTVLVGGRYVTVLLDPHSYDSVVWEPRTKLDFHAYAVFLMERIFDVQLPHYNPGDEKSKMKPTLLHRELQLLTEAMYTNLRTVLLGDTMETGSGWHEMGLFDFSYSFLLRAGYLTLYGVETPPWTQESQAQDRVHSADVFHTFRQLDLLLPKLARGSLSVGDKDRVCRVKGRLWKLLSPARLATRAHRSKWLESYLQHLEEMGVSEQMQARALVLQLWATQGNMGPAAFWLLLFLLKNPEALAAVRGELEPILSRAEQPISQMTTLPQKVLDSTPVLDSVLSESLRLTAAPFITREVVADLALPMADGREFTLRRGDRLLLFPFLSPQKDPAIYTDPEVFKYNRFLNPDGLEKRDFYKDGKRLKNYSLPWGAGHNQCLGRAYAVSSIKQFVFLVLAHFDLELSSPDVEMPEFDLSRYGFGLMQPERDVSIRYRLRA
The experiment in a line: Prostacyclin (PGI2) synthetase inhibition in vitro (isometric tension of rabbit aorta strip). The format is biochemical. The settings on record: pig aorta microsomes; PGH2 substrate, 30 sec, 22° C; 5 min pre-incubation; read-out: Molar concentration causing 50% inhibition of PGI2 Synthetase. Here is the method:
as §1
2. Prostacyclin (PGI2) Synthetase
Pig aorta microsomes (Nature, 1976, 263, 663) are incubated (30 sec.; 22° C.) with PGH2 produced as in 1) and aliquots bio-assayed as in 1. […] The test compound is then pre-incubated with the enzyme for 5 minutes, and its ability to prevent the decrease in tension is measured.
as §2

The target of experiment [3] is T3, Cyclo-oxygenase (Ovis aries, UniProt P05979).
T3 construct: Ram seminal vesicle microsomes; from tissue; host or cells: ram seminal vesicle (microsomes)
T3 sequence (P05979 25-600): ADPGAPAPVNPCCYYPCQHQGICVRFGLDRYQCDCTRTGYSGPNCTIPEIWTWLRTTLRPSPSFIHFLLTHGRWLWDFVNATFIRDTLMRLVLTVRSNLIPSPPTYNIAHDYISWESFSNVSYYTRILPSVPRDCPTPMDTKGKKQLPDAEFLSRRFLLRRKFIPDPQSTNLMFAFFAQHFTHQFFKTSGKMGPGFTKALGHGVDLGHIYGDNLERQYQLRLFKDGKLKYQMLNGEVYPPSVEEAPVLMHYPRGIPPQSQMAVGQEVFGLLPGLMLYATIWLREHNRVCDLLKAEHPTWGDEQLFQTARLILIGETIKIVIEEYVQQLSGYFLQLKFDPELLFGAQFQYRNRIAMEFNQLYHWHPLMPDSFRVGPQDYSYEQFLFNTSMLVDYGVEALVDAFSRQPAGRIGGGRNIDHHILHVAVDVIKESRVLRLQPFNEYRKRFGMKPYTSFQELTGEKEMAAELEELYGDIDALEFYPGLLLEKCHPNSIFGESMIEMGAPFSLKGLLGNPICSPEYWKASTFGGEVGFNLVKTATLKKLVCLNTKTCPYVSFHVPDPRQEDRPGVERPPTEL
The experiment in a line: Cyclo-oxygenase inhibition in vitro (isometric tension of rabbit aorta strip). The format is biochemical. The settings on record: ram seminal vesicle microsomes; arachidonic acid 100 μM, 1 min, 22°; 5 min pre-incubation; read-out: Molar concentration causing 50% inhibition of Cyclo-oxygenase. Here is the method:
as §1
Ram seminal vesicle microsomes (Biochemistry, 1971, 10, 2372) are incubated with arachidonic acid (100 μM: 1 min.: 22°) to produce PGH2 and aliquots of the reaction mixture injected into a stream of Krebs-bicarbonate at 37° C. (containing a mixture of antagonists (Nature, 1978, 218, 1135) and indomethacin (Brit. J. Pharmacol., 1972, 45, 451)) which is superfusing a spirally-cut rabbit aorta strip (Nature, 1969, 223, 29). The ability of a compound to inhibit the enzyme is measured by comparing the increases in isometric tension produced by PGH2 in the absence of the test compound, and following pre-incubation of the enzyme with the test compound for 5 minutes.
as §2

For experiment [4], the target named is T2, Prostacyclin (PGI2) Synthetase. The settings on record: pre-incubation with pig aorta microsome enzyme; literature; cited from earlier work.
Experiment [5] has as its system cyclo-oxygenase enzyme. The settings on record: background statement; cited from earlier work.
For experiment [6], the system named is human blood platelet aggregation. Conditions: human blood platelets, variety of aggregating agents; literature; cited from earlier work.
Experiment [7] has as its system lethal effect of arachidonic acid injection. The settings on record: intravenous arachidonic acid; literature; cited from earlier work.
Experiment [8] deals with aggregation of platelets in the rat aorta. Conditions: rats in vivo; literature; cited from earlier work.

With `c1cc(Cn2ccnc2)n(C2CCCCC2)c1`, the IC50 in experiment [1] was 620 nM.

Take `c1ccc(-n2cccc2Cn2ccnc2)cc1`: the IC50 in experiment [2] turned out to be 6.5 µM; in experiment [1] it was 1.9 nM.

Consider `c1ccc(Cn2cccc2Cn2ccnc2)cc1`, for which the IC50 in experiment [1] worked out at 1700 nM.

Take `CCOC(=O)c1ccc(Cn2cccc2Cn2ccnc2)cc1`: the IC50 amounted to 22 µM in experiment [2] and 2.4 nM in experiment [1].

Turning to `O=C(O)c1ccc(Cn2cccc2Cn2ccnc2)cc1`, the results for the IC50 in experiment [2], in experiment [1] and in experiment [3] were 100 µM, 3.4 nM and over 100 µM, respectively.

For `O=C(c1ccccc1)n1cccc1Cn1ccnc1`, the IC50 in experiment [2] came to 35 µM; in experiment [1] it was 4.9 nM.

In the case of `CCCCCC(/C=C/C=C\C/C=C\C/C=C\CCCC(=O)O)OO` (centres unmarked) [15-hydroperoxy-arachidonic acid], the “prevention of the PGI2-induced decrease in tension (PGI2 synthetase inhibition)” value in experiment [4] was “prevented completely”.

As for `O=C(O)CCn1cccc1Cn1ccnc1` [CH2 CH2 CO2 H, 1-(2-Carboxyethyl)-2-(imidazol-1-ylmethyl)pyrrole], the IC50 in experiment [1] worked out at 180 nM.

Take `C=CCn1cccc1Cn1ccnc1` [CH2 CHCH2]: in experiment [1], the IC50 worked out at 150 nM.

As for `CC(=O)Oc1ccccc1C(=O)O` [aspirin], in experiment [5], the “inhibition of the cyclo-oxygenase enzyme” value is on record as “inhibit the cyclo-oxygenase enzyme”. Further, the “inhibitory activity in vitro against aggregating agents” value in experiment [6] is recorded as “show inhibitory activity in vitro”. Moreover, the “protection from the lethal effect of arachidonic acid injection” value in experiment [7] was “protect the rabbit from the lethal effect of the injection”.

Turning to `O=C1C(CC[S+]([O-])c2ccccc2)C(=O)N(c2ccccc2)N1c1ccccc1` (centres unmarked) [sulphinpyrazone], the “inhibitory activity in vitro against aggregating agents” value in experiment [6] is “show inhibitory activity in vitro”. Besides, the “protection from the lethal effect of arachidonic acid injection” value in experiment [7] was “protect the rabbit from the lethal effect of the injection”. Also, the “prevention of platelet aggregation in extra corporeal loop of the abdominal aorta” value in experiment [8] is on record as “prevent the aggregation of platelets”.

The record behind these values is US4259345A, “2-(Imidazol-1-ylmethyl)pyrroles” (Pfizer Inc., priority 1979, dated 1981).
